Columns and labels:
[1] = system: tyrosinase (TYR) of N. parkeri; experiment: absorbance at […] nm, Lineweaver-Burk fit; format: biochemical, Nanorana parkeri; settings: 15 uM CuSO4, 50 mM Na2HPO4, pH 6.2; L-DOPA 0.625-10 mM
[2] = system: tyrosinase (TYR) of Q. spinosa; experiment: absorbance at […] nm, Lineweaver-Burk fit; format: biochemical, Quasipaa spinosa; settings: 15 uM CuSO4, 50 mM Na2HPO4, pH 6.2; L-DOPA 0.625-10 mM

Km [1]: 0.130 ± 0.073 mM/L | Km [2]: 0.1663 ± 0.117 mM/L
Compound: N[C@@H](Cc1ccc(O)c(O)c1)C(=O)O [L-DOPA]

Reference: PMC9674958 (Proceedings of the National Academy of Sciences of the …, 2022)
